Patent US4322496A, “Inhibition of lactate oxidase” (Eastman Kodak Company, priority 1980, dated 1982)
Like-named read-outs stand apart in the source and are kept apart here.

Tests used:
[1] = target: T1, L-α-Glycerophosphate Oxidase (Enterococcus casseliflavus, UniProt O86963); test: L-α-glycerophosphate oxidase enzyme assay (absorbance at 430 nm); type: biochemical; conditions: for inhibition at 5000 µM: compound at 5 mM, 37° C., pH 7.0, read-out: L-α-Glycerophosphate Oxidase Percent Inhibition
T1 construct: L-α-glycerophosphate oxidase was purified from Streptococcus faecium; made in house; host or cells: Streptococcus faecium ATCC 12755 (native organism, not recombinant)
T1 sequence (O86963 1-609): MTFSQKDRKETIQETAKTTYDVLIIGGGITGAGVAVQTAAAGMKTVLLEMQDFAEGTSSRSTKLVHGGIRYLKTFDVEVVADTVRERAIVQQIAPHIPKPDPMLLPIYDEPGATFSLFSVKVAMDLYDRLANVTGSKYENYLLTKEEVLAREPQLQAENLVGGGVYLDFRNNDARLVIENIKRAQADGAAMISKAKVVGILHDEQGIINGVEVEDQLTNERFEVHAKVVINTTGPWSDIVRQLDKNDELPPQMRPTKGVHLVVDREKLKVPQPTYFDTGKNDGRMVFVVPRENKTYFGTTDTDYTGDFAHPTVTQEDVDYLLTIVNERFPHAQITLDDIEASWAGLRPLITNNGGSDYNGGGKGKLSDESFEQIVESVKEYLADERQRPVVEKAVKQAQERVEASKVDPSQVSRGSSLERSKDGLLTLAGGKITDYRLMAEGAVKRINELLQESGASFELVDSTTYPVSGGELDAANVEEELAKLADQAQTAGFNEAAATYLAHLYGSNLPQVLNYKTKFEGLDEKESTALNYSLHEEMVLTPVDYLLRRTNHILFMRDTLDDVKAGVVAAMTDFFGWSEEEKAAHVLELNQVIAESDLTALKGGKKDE
Experimental: In the examples, oxidative enzymes were prepared from Streptococcus faecium ATCC 12755. L-lactate oxidase was isolated from Streptococcus faecium as a 0-50% ammonium sulfate fraction as described in Esders et al., U.S. Pat. No. 4,166,763 issued Sept. 4, 1979. L-α-glycerophosphate oxidase was purified from Streptococcus faecium as described in Table V, of Research Disclosure Publication No. 16146 published Sept. 10, 1977. Extensively purified L-α-glycerophosphate oxidase (material carried through the whole purification sequence) contained L-α-glycerophosphate:lactate oxidase activity ratios of (1700-3000:1), whereas the partially purified L-α-glycerophosphate oxidase (material isolated as the 50-80% ammonium sulfate fraction) contained L-α-glycerophosphate:lactate oxidase activity ratios of 30-100:1.
In the examples, enzyme assays for L-α-glycerophosphate oxidase were carried out as follows: Assay reaction mixtures contained in a total volume of 1.0 ml: 100 μmoles potassium phosphate buffer, pH 7.0, 66 μg orthodianisidine, 25 μg horseradish peroxidase (4.6 purpuragallin units) and 200 μmoles DL-α-glycerophosphate (at pH 7.0). Compounds to be tested as potential inhibitors were added to the reaction mixtures as indicated in Example 1. Samples were equilibrated at 37° C. and the reactions were initiated by the addition of an aliquot of enzyme. Absorbance at 430 nm was measured in a Beckman 25 spectrophotometer. Initial rates were calculated from the linear portion of the curve.

[2] = target: T2, L-Lactate Oxidase (Enterococcus casseliflavus, UniProt C9AC47); test: biochemical; conditions: for inhibition at 10000 µM: acid 10mM, read-out: LO % Inhibition; for inhibition of the enzymatic activity of lactate oxidase: measured at 30° C.
T2 sequence (C9AC47 1-367): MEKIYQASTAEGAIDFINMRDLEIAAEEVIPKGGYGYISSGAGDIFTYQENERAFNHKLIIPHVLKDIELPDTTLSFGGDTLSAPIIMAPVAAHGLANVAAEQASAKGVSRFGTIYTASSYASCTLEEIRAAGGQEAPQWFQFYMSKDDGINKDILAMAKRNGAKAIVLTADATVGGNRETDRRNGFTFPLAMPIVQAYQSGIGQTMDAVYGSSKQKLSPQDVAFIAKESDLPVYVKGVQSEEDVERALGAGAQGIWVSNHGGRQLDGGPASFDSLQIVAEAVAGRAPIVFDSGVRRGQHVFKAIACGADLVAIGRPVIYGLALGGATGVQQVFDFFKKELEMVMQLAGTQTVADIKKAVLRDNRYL
Experimental: In the examples, oxidative enzymes were prepared from Streptococcus faecium ATCC 12755. L-lactate oxidase was isolated from Streptococcus faecium as a 0-50% ammonium sulfate fraction as described in Esders et al., U.S. Pat. No. 4,166,763 issued Sept. 4, 1979. L-α-glycerophosphate oxidase was purified from Streptococcus faecium as described in Table V, of Research Disclosure Publication No. 16146 published Sept. 10, 1977.
In the examples, enzyme assays for lactate oxidase were carried out as follows: Assay reaction mixtures contained in a total volume of 1.0 ml: 100 μmoles potassium phosphate buffer, pH 7.0, 25 μmoles lactic acid, […] horseradish peroxidase (4.6 purpurogallin units), and 0.25 μmoles orthodianisidine. Compounds to be tested as potential inhibitors for lactate oxidase were added to the assay reaction mixtures as indicated in Example 1. Samples were equilibrated at 30° C. and then reactions were initiated by addition of Streptococcus faecium lactate oxidase. Absorbance at 430 nm was measured in a Beckman 25 spectrophotometer. Initial rates were calculated from the linear portion of the curve.

[3] = target: T3, beef meat lactate dehydrogenase (Bos taurus, UniProt P19858); test: LDH assay reaction mixture (pyruvate/NADH); type: biochemical; conditions: acid 10 mM; pH 7.5
T3 construct: beef meat lactate dehydrogenase; from tissue; host or cells: beef meat (skeletal muscle)
Experimental: The effect of these acids on LO was evaluated by studying an LO assay reaction mixture having the composition described above. The effect of these acids on LDH was evaluated by studying an LDH assay reaction mixture which contained in a total volume of 1.0 ml: 50 μmoles potassium phosphate buffer (pH 7.5); 1 μmole sodium pyruvate; 0.13 μmole NADH; 0.02 μg beef meat lactate dehydrogenase (320 U/mg) and the acid at a concentration of 10 mM. In the absence of acid, the rate of reaction was assumed to be 100% and the percent inhibition of each reaction was calculated accordingly.

[4] = target: T4, lactate oxidase activity in partially purified DL-α-glycerophosphate oxidase (Enterococcus casseliflavus, UniProt C9AC47); test: Lactate/serum blank reaction, solution mode; type: biochemical; conditions: 10 min, 37° C.; for Response to Normal Serum ΔA490: 20 μl normal serum
T4 sequence (C9AC47 1-367): T2 sequence (C9AC47 1-367)
Experimental: Solution incubation mixtures contained in a total volume of 1.0 ml: 100 μmoles potassium phosphate buffer, pH 7.0, 0.12 mg 4-aminoantipyrene.HCl, 0.04 mg 1,7-dihydroxynaphthalene, 25 μg horseradish peroxidase (4.6 purpurogallin units), 0.36 units glycerol kinase, 4.6 units partially purified DL-α-glycerophosphate oxidase, and 10 mg Triton X-100. Reactions were initiated by addition of 20 μl of normal serum or 50 μl of 1 mM Dl-lactate, and after ten minutes at 37° C., the absorbance was measured at 490 nm. In each case, a reagent blank (all components except substrate) was subtracted to give the change in absorbance at 490 nm, ΔA490.

[5] = target: T5, lactate oxidase activity in partially purified L-α-glycerophosphate oxidase (Enterococcus casseliflavus, UniProt C9AC47); test: Lactate blank reaction in dry chemistry triglyceride test element; type: biochemical; conditions: for Response to Lactate (DR): partially purified α-GPO, 10 μl DL-lactate 20 mg/dl, 540 nm, 7 min, 37° C.
T5 sequence (C9AC47 1-367): T2 sequence (C9AC47 1-367)
Experimental: (§1) In the examples, non-fibrous, multilayer, "dry chemistry" analytical elements for determination of serum triglycerides were formulated having the following structure and composition: […]
(§2) The enzymatic reagent layer composition of the above-noted "dry chemistry" analytical element contained deionized gelatin (5.4 g/m^2); gel hardener (32.4 mg/m^2); poly(methyl acrylate-co-2-acrylamido-2-methylpropanesulfonic acid-co-2-acetoacetoxyethyl methacrylate) having a monomer weight ratio of (88.8:4.7:6.5) as peroxidase stabilizer (5.4 g/m^2); 0.05 M potassium phosphate buffer, pH 7.0; Triton X-100 surfactant (389 mg/m^2); 2-(3,5-dimethoxy-4-hydroxyphenyl)4,5-bis(4-dimethylaminophenyl)imidazole as a leuco dye (405 mg/m^2 dispersed in 2,4-di-n-amylphenol (4.05 g/m^2); antioxidant (324 mg/m^2); MgCl (103 mg/m^2); adenosinetriphosphate (1.35 g/m^2); peroxidase (7020 U/m^2); glycerol kinase (324 U/m^2); and either purified or partially purified L-α-glycerophosphate oxidase (2840 U/m^2). When the partially purified L-α-glycerophosphate oxidase was used, glycolate was incorporated into that layer in the amounts noted below in Example 2.
A. Dry Chemistry Test Element Mode: Dry chemistry analytical elements for the determination of triglycerides were prepared with either the purified or partially purified L-α-GPO as described above. To each element, a 10 μl sample of DL-lactate (20 mg/dl) was applied and the reflection density of the element, DR, at 540 nm was measured through the element support after a seven-minute incubation at 37° C.

[6] = test system: components of the triglyceride detection system; test: Response of dry chemistry triglyceride test elements to test fluids; conditions: 81 or 405 mg/m^2 glycolate in element
Experimental: as §1
as §2, with “When the partially purified L-α-glycerophosphate oxidase was used, glycolate was incorporated into that layer in the amounts noted below in Example 2.” left out
Dry chemistry analytical elements (as described above) containing purified L-α-glycerophosphate oxidase and partially purified enzyme plus two different levels of glycolate were compared for response to serum triglycerides and glycerol. […] After a sevenminute incubation at 37° C., the reflection density, DR, at 540 nm was measured through the element support. […]

[7] = compound at 5 mM, 30° C., pH 7.0, rate without compound = 100%, read-out: L-Lactate Oxidase Percent Inhibition
[8] = pH 7, read-out: L-Lactate Oxidase Percent Inhibition

| SMILES | inhibition of lactate oxidase activity (in words) [2] | inhibition at 5000 µM [2, 7] | inhibition of the enzymatic activity of lactate oxidase [2] | other results |
| --- | --- | --- | --- | --- |
| O=C(O)CC(O)C(=O)O (stereo not shown) [Malic Acid] | little or no inhibition | 0% | – | – |
| NC(=O)C(N)=O [Oxamide] | – | 43% | < 50% | – |
| COCC(=O)O [Methoxyacetic Acid] | little or no inhibition | – | – | inhibition at 5000 µM [2, 8]: 0% |
| NCC(=O)O [Glycine] | little or no inhibition | – | – | inhibition at 5000 µM [2, 8]: 0% |
| O=CC(=O)O [Glyoxalic Acid] | inhibited the enzyme | 100% | – | inhibition of L-α-GPO (in words) [1]: inhibited L-α-GPO as well; inhibition at 5000 µM [1]: 100%; inhibition at 10000 µM [2]: 100%; inhibition at 10000 µM [3]: 15% |
| CC(O)C(N)=O (stereo not shown) [Lactamide] | little or no inhibition | 0% | – | – |
| O=C(O)CCC(=O)C(=O)O [α-Ketoglutaric Acid] | little or no inhibition | – | – | inhibition at 5000 µM [2, 8]: 0% |
| O=C(O)C(O)C(=O)O [Tartronic Acid] | – | 10% | – | – |

The next lines start with results.

| inhibition of lactate oxidase activity (in words) [2] | inhibition at 5000 µM [2, 7] | inhibition of the enzymatic activity of lactate oxidase [2] | SMILES | other results |
| --- | --- | --- | --- | --- |
| greatly inhibit | 94% | – | O=C(O)C(=O)O [Oxalic Acid] | inhibition of L-α-GPO (in words) [1]: do not inhibit; inhibition at 5000 µM [1]: 0%; inhibition at 10000 µM [2]: 94%; inhibition at 10000 µM [3]: 100% |
| – | 7% | < 50% | CCC(O)C(=O)O (stereo not drawn) [α-Hydroxybutyric Acid] | – |
| – | 30% | < 50% | O=C(O)CC(=O)O [Malonic Acid] | – |
| – | 40% | < 50% | NC(=O)C(=O)O [Oxamic Acid] | – |
| – | 21% | < 50% | O=C(O)C(O)CO (racemic) [Glyceric Acid] | – |
| greatly inhibit | 90% | – | O=C(O)CO [Glycolic Acid] | Response to Normal Serum ΔA490 ([4]; glycolate 1 mM): 0.006; Response to 50 μM DL-Lactate ΔA490 ([4]; glycolate 1 mM): 0.008; Response to Normal Serum ΔA490 ([4]; glycolate 2 mM): 0; Response to 50 μM DL-Lactate ΔA490 ([4]; glycolate 2 mM): 0; Response to Normal Serum ΔA490 ([4]; glycolate 3 mM): 0; Response to 50 μM DL-Lactate ΔA490 ([4]; glycolate 3 mM): 0; inhibition of L-α-GPO (in words) [1]: do not inhibit; inhibition at 5000 µM [1]: 0%; lactate blank relative to control (purified α-GPO) ([5]; 81 mg/m^2 glycolic acid): 1.6 times control; Response to Lactate (DR) ([5]; 81 mg/m^2 glycolic acid): 0.04; reaction with lactate compared with control (purified α-GPO) ([5]; 405 mg/m^2 glycolic acid): less than that observed with the purified L-α-glycerophosphate oxidase; Response to Lactate (DR) ([5]; 405 mg/m^2 glycolic acid): 0.01; inhibition of the components of the triglyceride detection system (in words) [6]: did not inhibit any of the components of the triglyceride detection system; inhibition at 10000 µM [2]: 90%; inhibition at 10000 µM [3]: 11% |
| little or no inhibition | 0% | – | CC(O)CC(=O)O (stereo not drawn) [β-Hydroxybutyric Acid] | – |
